In US20230100844A1, “IBOGAINE COMBINATION TREATMENT” (ATAI Life Sciences AG, priority 2021, published 2023):
Where two headings read alike, the source gives them in different places.

Experiments:
[1] = in vivo; cited from earlier work
CYP2D6 = target: T1, CYP2D6 (Homo sapiens, UniProt P10635); details: humans; cited from earlier work
T1 construct: host or cells: human subjects (endogenous enzyme of gut wall and liver)

[2] = cited from earlier work
[3] = Nonclinical proof-of-concept PD study: drug self-administration after CYP2D6 inhibitor plus ibogaine; format: in vivo, rats and/or nonhuman primates; details: single dose CYP2D6 inhibitor followed by single dose ibogaine
Method: Nonclinical proof-of-concept PD studies (rats and/or nonhuman primates):
Dose(s) of CYP2D6 inhibitor based on prior PK studies in the same species are tested. Intravenous drug self-administration studies involve training the animal to emit a response (e.g., lever press) for a non-drug reinforcer (e.g., food) under specific stimulus conditions in the test chamber. Then, the animal undergoes aseptic surgery to place a chronically indwelling intravenous cannula that is connected to a drug infusion system within the test chamber. After surgical recovery, the stimulus conditions in the test chamber now signal the availability of a drug reinforcer (e.g., morphine or cocaine), and lever pressing results in an intravenous infusion of the available drug during daily session. For studies of oral self-administration (e.g., ethanol), animals are trained to self-administer the drug using a lever paradigm (e.g., in which pressing of the lever results in delivery of the drug solution into a drinking cup) or a two-bottle choice […] paradigm (e.g., in which animals are allowed to drink for 24 hours from one bottle containing a drug solution or another bottle containing water). During a test session, vehicle or a dose of CYP2D6 inhibitor is administered prior to a dose of ibogaine and then, responses on the drug-associated lever or the volume of drug solution consumed are measured.

[4] = in vivo; cited from earlier work; remark: listed apart in the source
[5] = animals, meta-analysis; cited from earlier work
[6] = single oral 8-12 mg/kg HCl; cited from earlier work
[7] = single oral 10 mg/kg ibogaine, cited from earlier work
[8] = cited from earlier work; for plasma exposures with chronic paroxetine: CYP2D6 extensive metabolizers, paroxetine 10-20 mg, single ibogaine 20 mg (about 0.3 mg/kg); for time out to which ibogaine plasma exposures are detectable: single ibogaine 20 mg
[9] = single oral administration, humans; cited from earlier work
[10] = oral administration; cited from earlier work

T1 sequence (P10635 whole entry): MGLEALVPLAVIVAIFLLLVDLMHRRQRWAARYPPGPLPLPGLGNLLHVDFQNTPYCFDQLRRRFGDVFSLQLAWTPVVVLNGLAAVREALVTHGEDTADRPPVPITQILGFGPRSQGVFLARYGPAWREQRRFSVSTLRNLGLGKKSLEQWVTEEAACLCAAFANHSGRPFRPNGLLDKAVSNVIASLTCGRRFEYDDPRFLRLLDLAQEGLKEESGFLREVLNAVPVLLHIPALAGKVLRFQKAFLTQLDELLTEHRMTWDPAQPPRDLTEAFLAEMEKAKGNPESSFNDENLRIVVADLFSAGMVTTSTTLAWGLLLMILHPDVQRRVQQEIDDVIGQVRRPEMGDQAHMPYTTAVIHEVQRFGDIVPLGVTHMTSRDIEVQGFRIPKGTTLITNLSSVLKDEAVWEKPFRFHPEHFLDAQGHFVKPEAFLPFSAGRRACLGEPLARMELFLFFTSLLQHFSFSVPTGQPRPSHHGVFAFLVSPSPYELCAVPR

CNCCC(Oc1ccc(C(F)(F)F)cc1)c1ccccc1 (stereo not shown) [Fluoxetine, fluoxetine]
half-life [1]: long half-life (days)

C=C[C@H]1C[N@@]2CC[C@H]1C[C@@H]2[C@@H](O)c1ccnc2ccc(OC)cc12 [Quinidine, quinidine]
in vivo CYP2D6 inhibition (CYP2D6): can inhibit the metabolism of the CYP2D6 substrate debrisoquine in vivo

CC(NC(C)(C)C)C(=O)c1cccc(Cl)c1 (stereo not shown) [bupropion]
single-dose half-life ([2]; single dose): 10 to 15 h

C[C@H]1NC(C)(C)CO[C@]1(O)c1cccc(Cl)c1 [hydroxybupropion]
half-life of metabolite ([2]; bupropion metabolites that also inhibit CYP2D6): 22 to 25 h

CCC1CC2CC3c4[nH]c5ccc(OC)cc5c4CCN(C2)C13 (stereo not shown) [ibogaine, Ibogaine]
therapeutic-like effects (reduction of drug self-administration) with CYP2D6 inhibitor pretreatment [3]: increases ibogaine's therapeutic-like effects | time within which visualizations and perceptual changes subside [4]: 6 to 8 h | self-administration of drugs (opiates, cocaine, ethanol) [5]: reduced self-administration of several drugs | opioid withdrawal signs, craving and mood [6]: reduced opioid withdrawal signs and craving and increased mood | absorbed ibogaine eliminated by 24 hours post dose ([7]; CYP2D6 extensive metabolizers): > 90% | exposure in CYP2D6 poor metabolizers compared to extensive metabolizers [7]: modestly increased | plasma exposures with chronic paroxetine [8]: increased plasma exposures | time out to which ibogaine plasma exposures are detectable ([8]; chronic paroxetine 10-20 mg): 72 h | time out to which ibogaine plasma exposures are detectable ([8]; chronic placebo treatment): < 4 h | time blood concentrations were detectable [9]: about 24 h | time to peak blood concentration [9]: peaked within a couple of hours | cardiac QT interval [10]: associated with cardiac QT interval prolongation

CC[C@H]1C[C@H]2C[C@H]3c4[nH]c5ccc(O)cc5c4CCN(C2)[C@@H]13 [noribogaine]
Cmax in blood ([7]; CYP2D6 extensive metabolizers): in the same range as the parent drug | concentrations at 24 hours ([7]; CYP2D6 extensive metabolizers): remained elevated | exposure in CYP2D6 poor metabolizers compared to extensive metabolizers [7]: markedly decreased | plasma exposures with chronic paroxetine [8]: decreased plasma exposures | time blood concentrations were detectable [9]: detectable for a longer duration | time to peak blood concentration [9]: peaked later
